pEC50: −log10 of the molar value.
Target: hSTING (Homo sapiens, UniProt Q86WV6)
Experiment: STING reporter assay (luciferase) in THP1-Dual KO-IFNAR2 cells activated with 2'3' cGAMP
Format: cell-based
Conditions: 15 μM 2'3' cGAMP, 24 h
Description: STING pathway activation by the compounds described herein was measured using THP1-Dual™ cells (KO-IFNAR2).
THP1-Dual™ KO-IFNAR2 Cells (obtained from invivogen) were maintained in RPMI, 10% FCS, 5 ml P/S, 2 mM L-glut, 10 mM Hepes, and 1 mM sodium pyruvate. Compounds were spotted in empty 384 well tissue culture plates (Greiner 781182) by Echo for a final concentration of 0.0017-100 μM. Cells were plated into the TC plates at 40 μL per well, 2×10E6 cells/mL. For activation with STING ligand, 2′3′ cGAMP (MW 718.38, obtained from Invivogen), was prepared in Optimem media.
The following solutions were prepared for each 1×384 plate: • Solution A: 2 mL Optimem with one of the following stimuli: • 60 uL of 10 mM 2′3′ cGAMP ->150 μM stock • Solution B: 2 mL Optimem with 60 μL Lipofectamine 2000->Incubate 5 min at RT
2 mL of solution A and 2 ml Solution B was mixed and incubated for 20 min at room temperature (RT). 20 uL of transfection solution (A+B) was added on top of the plated cells, with a final 2′3′ cGAMP concentration of 15 μM. The plates were then centrifuged immediately at 340 g for 1 minute, after which they were incubated at 37° C., 5% CO2, >98% humidity for 24 h. Luciferase reporter activity was then measured. EC50 values were calculated by using standard methods known in the art.
(§1) Luciferase reporter assay: 10 μL of supernatant from the assay was transferred to white 384-plate with flat bottom and squared wells. one pouch of QUANTI-Luc™ Plus was dissolved in 25 mL of water. 100 μL of QLC Stabilizer per 25 mL of QUANTI-Luc™ Plus solution was added. 50 μL of QUANTI-Luc™ Plus/QLC solution per well was then added. Luminescence was measured on a Platereader (e.g., Spectramax I3X (Molecular Devices GF3637001)).
Luciferase reporter activity was then measured. EC50 values were calculated by using standard methods known in the art.
as §1, with “squared wells,” for “squared wells.”, “Luminescence is” for “Luminescence was”

Sequence of hSTING (Q86WV6 whole entry R71H/G230A/H232R/R293Q, form open): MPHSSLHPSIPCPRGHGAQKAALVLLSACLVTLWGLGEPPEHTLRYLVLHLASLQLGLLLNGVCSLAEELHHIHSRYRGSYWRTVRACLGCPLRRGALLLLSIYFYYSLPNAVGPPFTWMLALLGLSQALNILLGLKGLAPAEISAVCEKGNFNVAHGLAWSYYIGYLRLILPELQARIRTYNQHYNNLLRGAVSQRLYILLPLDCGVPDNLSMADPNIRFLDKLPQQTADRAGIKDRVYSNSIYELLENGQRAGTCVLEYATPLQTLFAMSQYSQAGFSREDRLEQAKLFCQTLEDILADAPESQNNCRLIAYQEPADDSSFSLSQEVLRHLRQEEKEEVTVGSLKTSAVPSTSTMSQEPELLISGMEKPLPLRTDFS

pEC50	Compound
6.00 to 6.70	O=C(Nc1ccc(C(F)(F)F)cc1)Nc1c[nH]c2ccc(-c3cncc(Cl)c3)cc12 [Compound 229]
6.70 to 7.40	O=C(Nc1ccc(C(F)(F)F)cc1)Nc1c[nH]c2ccc(-c3cnn(-c4ccccc4)c3)cc12 [Compound 234]
5.30 to 6.00	O=C(Nc1ccc(C(F)(F)F)cc1)Nc1c[nH]c2ccc(-c3ccc(F)cc3F)cc12 [Compound 242]
6.00 to 6.70	O=C(Nc1ccc(C(F)(F)F)cc1)Nc1c[nH]c2ccc(-c3ccc(OC(F)F)cc3)cc12 [Compound 218]
6.00 to 6.70	CC(C)n1cc(-c2cc3c(NC(=O)Nc4ccc(C(F)(F)F)cc4)c[nH]c3cc2F)cn1 [Compound 213]
5.30 to 6.00	O=C(Nc1ccc(C(F)(F)F)cc1)Nc1c[nH]c2ccc(-c3c(F)cccc3F)cc12 [Compound 222]
6.00 to 6.70	CN(C)C(=O)c1ccc(-c2ccc3[nH]cc(NC(=O)Nc4ccc(C(F)(F)F)cc4)c3c2)cc1 [Compound 219]
6.00 to 6.70	O=C(Nc1ccc(C(F)(F)F)cc1)Nc1c[nH]c2ccc(-c3cccc(Cl)c3)cc12 [Compound 226]
6.00 to 6.70	O=C(Nc1ccc(C(F)(F)F)cc1)Nc1c[nH]c2ccc(-c3cccnc3)cc12 [Compound 230]
6.70 to 7.40	N#Cc1csc(-c2ccc3[nH]cc(NC(=O)Nc4ccc(C(F)(F)F)cc4)c3c2)c1 [Compound 216]
6.00 to 6.70	COCc1cncc(-c2ccc3[nH]cc(NC(=O)Nc4ccc(C(F)(F)F)cc4)c3c2)c1 [Compound 228]
6.70 to 7.40	O=C(Nc1ccc(C(F)(F)F)cc1)Nc1c[nH]c2cc(F)c(-c3cnn(C(F)F)c3)cc12 [Compound 212, 1-(5-(1-(difluoromethyl)-1H-pyrazol-4-yl)-6-fluoro-1H-indol-3-yl)-3-(4-(trifluoromethyl)phenyl)urea]
6.70 to 7.40	O=C(Nc1ccc(C(F)(F)F)cc1)Nc1c[nH]c2ccc(-c3cnn(CC4CC4)c3)cc12 [Compound 235]
6.00 to 6.70	CN(C)C(=O)c1ccc(-c2ccc3[nH]cc(NC(=O)Nc4ccc(C(F)(F)F)cc4)c3c2)c(F)c1 [Compound 215]
6.70 to 7.40	CCn1cc(-c2ccc3[nH]cc(NC(=O)Nc4ccc(C(F)(F)F)cc4)c3c2)cn1 [Compound 237]
6.00 to 6.70	O=C(Nc1ccc(C(F)(F)F)cc1)Nc1c[nH]c2ccc(-c3cccc(OC(F)(F)F)c3)cc12 [Compound 220]
6.00 to 6.70	CC(C)n1cc(-c2ccc3[nH]cc(NC(=O)Nc4ccc(C5CCCCC5)nc4)c3c2)cn1 [Compound 243]
6.00 to 6.70	CC(=O)c1ccc(-c2ccc3[nH]cc(NC(=O)Nc4ccc(C(F)(F)F)cc4)c3c2)s1 [Compound 231]
6.00 to 6.70	O=C(Nc1ccc(C(F)(F)F)cc1)Nc1c[nH]c2ccc(-c3ccccc3)cc12 [Compound 101, 1-(5-phenyl-1H-indol-3-yl)-3-(4-(trifluoromethyl)phenyl)urea]

pEC50	Compound
6.00 to 6.70	COc1cccc(-c2ccc3[nH]cc(NC(=O)Nc4ccc(C(F)(F)F)cc4)c3c2)c1 [Compound 225]
6.00 to 6.70	COCCn1cc(-c2ccc3[nH]cc(NC(=O)Nc4ccc(C(F)(F)F)cc4)c3c2)cn1 [Compound 236]
5.30 to 6.00	CCCc1ccc(-c2ccc3[nH]cc(NC(=O)Nc4ccc(C(F)(F)F)cc4)c3c2)cc1 [Compound 238]
6.00 to 6.70	O=C(Nc1ccc(C(F)(F)F)cc1)Nc1c[nH]c2ccc(-c3cccc4ncccc34)cc12 [Compound 221, 1-(5-(quinolin-5-yl)-1H-indol-3-yl)-3-(4-(trifluoromethyl)phenyl)urea]
5.30 to 6.00	O=C(Nc1ccc(C(F)(F)F)cc1)Nc1c[nH]c2ccc(-c3ccc(F)c(F)c3)cc12 [Compound 241]
6.00 to 6.70	CC(C)(O)Cn1cc(-c2ccc3[nH]cc(NC(=O)Nc4ccc(C(F)(F)F)cc4)c3c2)cn1 [Compound 297, 1-(5-(1-(2-hydroxy-2-methylpropyl)-1H-pyrazol-4-yl)-1H-indol-3-yl)-3-(4-(trifluoromethyl)phenyl)urea]
6.00 to 6.70	O=C(Nc1ccc(C(F)(F)F)cc1)Nc1c[nH]c2ccc(-c3cc(F)cc(F)c3)cc12 [Compound 240]
5.30 to 6.00	O=C(Nc1ccc(C(F)(F)F)cc1)Nc1c[nH]c2ccc(-c3ccc(Cl)c(Cl)c3)cc12 [Compound 239]
5.30 to 6.00	Cn1ccc(-c2ccc3[nH]cc(NC(=O)Nc4ccc(C(F)(F)F)cc4)c3c2)n1 [Compound 214, 1-(5-(1-methyl-1H-pyrazol-3-yl)-1H-indol-3-yl)-3-(4-(trifluoromethyl)phenyl)urea]
5.30 to 6.00	O=C(Nc1ccc(C(F)(F)F)cc1)Nc1c[nH]c2ccc(-c3ccc(CO)cc3)cc12 [Compound 282, 1-(5-(4-(hydroxymethyl)phenyl)-1H-indol-3-yl)-3-(4-(trifluoromethyl)phenyl)urea]
6.00 to 6.70	O=C(Nc1ccc(C(F)(F)F)cc1)Nc1c[nH]c2ccc(-c3cc(Cl)nc(Cl)c3)cc12 [Compound 227]
5.30 to 6.00	Nc1cc(-c2ccc3[nH]cc(NC(=O)Nc4ccc(C(F)(F)F)cc4)c3c2)ccn1 [Compound 274, 1-(5-(2-aminopyridin-4-yl)-1H-indol-3-yl)-3-(4-(trifluoromethyl)phenyl)urea]
4.00 to 5.30	CC(C)(C#N)c1ccc(-c2ccc3[nH]cc(NC(=O)Nc4ccc(C(F)(F)F)cc4)c3c2)cc1 [Compound 217]
6.00 to 6.70	CCCCCCc1ccc(-c2ccc3[nH]cc(NC(=O)Nc4ccc(C(F)(F)F)cc4)c3c2)cc1 [Compound 211, 1-(5-(4-hexylphenyl)-1H-indol-3-yl)-3-(4-(trifluoromethyl)phenyl)urea]
6.00 to 6.70	O=C(Nc1ccc(C(F)(F)F)cc1)Nc1c[nH]c2ccc(-c3ccc(CO)c(F)c3)cc12 [Compound 127, 1-(5-(3-fluoro-4-(hydroxymethyl)phenyl)-1H-indol-3-yl)-3-(4-(trifluoromethyl)phenyl)urea]
6.00 to 6.70	N#CCCn1cc(-c2ccc3[nH]cc(NC(=O)Nc4ccc(C(F)(F)F)cc4)c3c2)cn1 [Compound 232]
6.70 to 7.40	CC(C)n1cc(-c2ccc3[nH]cc(NC(=O)Nc4ccc(C(F)(F)F)cc4)c3c2)cn1 [Compound 104, 1-(5-(1-isopropyl-1H-pyrazol-4-yl)-1H-indol-3-yl)-3-(4-(trifluoromethyl)phenyl)urea]
5.30 to 6.00	O=C(Nc1ccc(C(F)(F)F)cc1)Nc1c[nH]c2ccc(-c3cccc4cccnc34)cc12 [Compound 224, 1-(5-(quinolin-8-yl)-1H-indol-3-yl)-3-(4-(trifluoromethyl)phenyl)urea]
6.00 to 6.70	CC(C)c1ccc(-c2ccc3[nH]cc(NC(=O)Nc4ccc(C(F)(F)F)cc4)c3c2)cc1 [Compound 223, 1-(5-(4-isopropylphenyl)-1H-indol-3-yl)-3-(4-(trifluoromethyl)phenyl)urea]

Compound	pEC50
CC(C)(C)Oc1ccc(-c2ccc3[nH]cc(NC(=O)Nc4ccc(C(F)(F)F)cc4)c3c2)cc1 [Compound 288, 1-(5-(4-(tert-butoxy)phenyl)-1H-indol-3-yl)-3-(4-(trifluoromethyl)phenyl)urea]	6.00 to 6.70
